The source of these data is US12459951B2, “Compounds that interact with RAS superfamily proteins for treatment of cancers, inflammatory diseases, rasopathies, and fibrotic disease” (SHY Therapeutics, LLC, priority 2022, dated 2025).

Test [1] deals with T1, Rac-1 (Homo sapiens, UniProt P63000).
T1 construct: made in house
In words: Ras GTP Binding Domain Inhibition Assay (Ras Superfamily Assay). The settings on record: read-out: Rac-1: % inh. The essentials: (§1)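 Ni-plate capture of His-tagged protein (10-30 μg/mL, o/n 4° C); cpd 20 μM or dilution series, 1% DMSO, 3 h RT ± Sos 556-1049 last h; 100 nM Cy-labelled GTP 45 min RT; 3× wash; fluorescence read.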

Test [2] has as its system KRas G12D mutant. The test is described as above. The settings on record: for KRas G12D mutant + SOS: % inh.: with SOS; for KRas G12D mutant: % inh.: without SOS. The essentials: as §1
Test [3] deals with KRas wild type. Described as above. The settings on record: for KRas wild type + SOS: % inh.: with SOS; for KRas wild type: % inh.: without SOS. The essentials:
as §1

Test [4] deals with MiaPaca-2 (expressing KRAS G12C mutant). In words: Proliferation Assay (Cell Viability Assay). The test is classed as cell-based. The settings on record: Homo sapiens, MIA PaCa-2. The essentials: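 MiaPaca-2 cells (KRAS G12C) were grown in DMEM-high glucose with 10% FBS, seeded at 2000–5000 cells/well and cultured overnight. Compounds were added at 10 μM final, or as serial dilutions for IC50, in 0.3% DMSO/10% FBS for 2–4 days at 37 °C, 5% CO2. Viability was measured with CellTiter 96 Aqueous One and % inhibition calculated.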

The mark [5] stands for this setting: read-out: Proliferation in MiaPaca-2: IC50.

Read-outs that look alike come from different tables or passages of the source. A value given as a limit tells only on which side of the number the result lay.

As to `Cc1c(-c2ccn(C)n2)cn2nc(-c3nccn3C)nc(Nc3cc(C(C)(C)O)ccn3)c12` [Compound 240, 2-(2-((5-Methyl-2-(1-methyl-1H-imidazol-2-yl)-6-(1-methyl-1H-pyrazol-3-yl)pyrrolo[2,1-f][1,2,4]triazin-4-yl)amino)pyridin-4-yl)propan-2-ol], the inhibition at 20 µM in test [1] is 76 to 100%. Moreover, in test [2] (at 20 μM), the “KRas G12D mutant + SOS: % inh.” value was “D (D = 76-100% inhibition)” and the “KRas G12D mutant: % inh.” value is “D (D = 76-100% inhibition)”. In test [3] (at 20 μM), the “KRas wild type + SOS: % inh.” value is given as “D (D = 76-100% inhibition)” and the “KRas wild type: % inh.” value is “D (D = 76-100% inhibition)”. Further, the IC50 in test [4] (setting [5]) is less than 150 nM.

`Cc1c(-c2ccn(C)n2)cn2nc(-c3nccn3C)nc(Nc3ccc(N(C)C)cn3)c12` [Compound 227, N5,N5-Dimethyl-N2-(5-methyl-2-(1-methyl-1H-imidazol-2-yl)-6-(1-methyl-1H-pyrazol-3-yl)pyrrolo[2,1-f][1,2,4]triazin-4-yl)pyridine-2,5-diamine]: the inhibition at 20 µM in test [1] lay within 76 to 100%. In test [2] (at 20 μM), the “KRas G12D mutant + SOS: % inh.” value is recorded as “D (D = 76-100% inhibition)” and the “KRas G12D mutant: % inh.” value is on record as “D (D = 76-100% inhibition)”. In addition, in test [3] (at 20 μM), the “KRas wild type + SOS: % inh.” value is “D (D = 76-100% inhibition)” and the “KRas wild type: % inh.” value is on record as “D (D = 76-100% inhibition)”. In addition, in test [4] (setting [5]), the IC50 is less than 150 nM.

For `COc1cc(Nc2nc(-c3nccn3C)nn3cc(-c4ccn(C)n4)c(C)c23)ncc1C` [Compound 235, N-(4-Methoxy-5-methylpyridin-2-yl)-5-methyl-2-(1-methyl-1H-imidazol-2-yl)-6-(1-methyl-1H-pyrazol-3-yl)pyrrolo[2,1-f][1,2,4]triazin-4-amine], the inhibition at 20 µM in test [1] lay in the range of 50 to 75%. For the same molecule, in test [2] (at 20 μM), the “KRas G12D mutant + SOS: % inh.” value is “C (C = 50-75% inhibition)” and the “KRas G12D mutant: % inh.” value is given as “C (C = 50-75% inhibition)”. For the same molecule, in test [3] (at 20 μM), the “KRas wild type + SOS: % inh.” value is “B (B = 26-49% inhibition)” and the “KRas wild type: % inh.” value is listed as “C (C = 50-75% inhibition)”. In addition, the IC50 in test [4] (Proliferation assay, MiaPaca-2, read-out: MiaPaca-2 IC50 (nM) Pancreatic) was in the range of 1 to 10 nM. Besides, the IC50 in test [4] (setting [5]) was less than 150 nM.

As for `COc1ccnc(Nc2nc(-c3nccn3CCNC(=O)CCCC[C@H]3SC[C@H]4NC(=O)N[C@H]43)nn3cc(-c4ccn(C)n4)c(C)c23)c1` [Compound 216, N-(2-(2-(4-((4-methoxypyridin-2-yl)amino)-5-methyl-6-(1-methyl-1H-pyrazol-3-yl)pyrrolo[2,1-f][1,2,4]triazin-2-yl)-1H-imidazol-1-yl)ethyl)-5-((3aR,4R,6aS)-2-oxohexahydro-1H-thieno[3,4-d]imidazol-4-yl)pentanamide], in test [1], the inhibition at 20 µM is 76 to 100%. In test [2] (at 20 μM), the “KRas G12D mutant + SOS: % inh.” value was “D (D = 76-100% inhibition)” and the “KRas G12D mutant: % inh.” value is recorded as “D (D = 76-100% inhibition)”. Further, in test [3] (at 20 μM), the “KRas wild type + SOS: % inh.” value was “D (D = 76-100% inhibition)” and the “KRas wild type: % inh.” value is listed as “D (D = 76-100% inhibition)”. In addition, in test [4] (setting [5]), the IC50 was greater than 1000 nM.

For the molecule `CO[C@H]1CC[C@H](Nc2nc(-c3nccn3C)nn3cc(-c4ccn(C)n4)c(C(=O)NC4CC4)c23)C1` (racemic) [Compound 182, rac N-Cyclopropyl-4-(((1S,3S)-3-methoxycyclo-pentyl)amino)-2-(1-methyl-1H-imidazol-2-yl)-6-(1-methyl-1H-pyrazol-3-yl)pyrrolo[2,1-f][1,2,4]triazine-5-carboxamide], the inhibition at 20 µM in test [1] was 1 to 25%. Moreover, in test [2] (20 μM compound), the “KRas G12D mutant + SOS: % inh.” value is listed as 0 (0 = 0% inhibition) and the “KRas G12D mutant: % inh.” value is recorded as “A (A = 1-25% inhibition)”. Further, in test [3] (20 μM compound), the “KRas wild type + SOS: % inh.” value is given as “A (A = 1-25% inhibition)” and the “KRas wild type: % inh.” value is given as “A (A = 1-25% inhibition)”. For the same molecule, the IC50 in test [4] (setting [5]) was greater than 1000 nM.

In the case of `COC1CCCN(c2nc(-c3ccccn3)nn3cc(-c4ccn(C(C)C)n4)c(C)c23)C1` (racemic) [Compound 12, rac 6-(1-Isopropyl-1H-pyrazol-3-yl)-4-(3-methoxypiperidin-1-yl)-5-methyl-2-(pyridin-2-yl)pyrrolo[2,1-f][1,2,4]triazine], in test [1], the inhibition at 20 µM was 0%. For the same molecule, in test [2] (20 μM compound), the “KRas G12D mutant + SOS: % inh.” value is 0 (0 = 0% inhibition) and the “KRas G12D mutant: % inh.” value is “A (A = 1-25% inhibition)”. In test [3] (20 μM compound), the “KRas wild type + SOS: % inh.” value is 0 (0 = 0% inhibition) and the “KRas wild type: % inh.” value is recorded as 0 (0 = 0% inhibition). The IC50 in test [4] (setting [5]) is greater than 1000 nM.

Regarding `COc1ccnc(Nc2nc(-c3nccn3C)nn3cc(-c4ccn(C)n4)c(C(=O)NC4CC4)c23)c1` [Compound 175, N-Cyclopropyl-4-((4-methoxypyridin-2-yl)amino)-2-(1-methyl-1H-imidazol-2-yl)-6-(1-methyl-1H-pyrazol-3-yl)pyrrolo[2,1-f][1,2,4]triazine-5-carboxamide], the inhibition at 20 µM in test [1] was in the range of 26 to 49%. In addition, in test [2] (20 μM compound), the “KRas G12D mutant + SOS: % inh.” value is reported as “D (D = 76-100% inhibition)” and the “KRas G12D mutant: % inh.” value is “C (C = 50-75% inhibition)”. In addition, in test [3] (20 μM compound), the “KRas wild type + SOS: % inh.” value was “D (D = 76-100% inhibition)” and the “KRas wild type: % inh.” value is recorded as “D (D = 76-100% inhibition)”. In test [4] (setting [5]), the IC50 lay in the range of 150 to 500 nM.

Turning to `CO[C@H]1C[C@H](Nc2nc(-c3nccn3C)nn3cc(-c4cccc5c4CCO5)c(-c4ccccc4)c23)C1` [Compound 210, 6-(2,3-Dihydrobenzofuran-4-yl)-N-((1r,3r)-3-methoxycyclobutyl)-2-(1-methyl-1H-imidazol-2-yl)-5-phenylpyrrolo[2,1-f][1,2,4]triazin-4-amine], in test [1], the inhibition at 20 µM lay within 1 to 25%. Besides, in test [2] (at 20 μM), the “KRas G12D mutant + SOS: % inh.” value is “A (A = 1-25% inhibition)” and the “KRas G12D mutant: % inh.” value is listed as “A (A = 1-25% inhibition)”. Moreover, in test [3] (at 20 μM), the “KRas wild type + SOS: % inh.” value was 0 (0 = 0% inhibition) and the “KRas wild type: % inh.” value was “A (A = 1-25% inhibition)”. The IC50 in test [4] (setting [5]) fell in the range of 510 to 1000 nM.

Regarding `Cc1c(-c2ccn(C)n2)cn2nc(-c3nccn3C)nc(Nc3ccc(C(F)F)cn3)c12` [Compound 234, N-(5-(Difluoromethyl)pyridin-2-yl)-5-methyl-2-(1-methyl-1H-imidazol-2-yl)-6-(1-methyl-1H-pyrazol-3-yl)pyrrolo[2,1-f][1,2,4]triazin-4-amine], the inhibition at 20 µM in test [1] was 76 to 100%. Besides, in test [2] (at 20 μM), the “KRas G12D mutant + SOS: % inh.” value is “D (D = 76-100% inhibition)” and the “KRas G12D mutant: % inh.” value is “D (D = 76-100% inhibition)”. In test [3] (at 20 μM), the “KRas wild type + SOS: % inh.” value is listed as “D (D = 76-100% inhibition)” and the “KRas wild type: % inh.” value is “C (C = 50-75% inhibition)”. Further, in test [4] (setting [5]), the IC50 was less than 150 nM.

`COc1cnc(Nc2nc(-c3nccn3C)nn3cc(-c4ccn(C)n4)c(C)c23)cc1C` [Compound 236, N-(5-Methoxy-4-methylpyridin-2-yl)-5-methyl-2-(1-methyl-1H-imidazol-2-yl)-6-(1-methyl-1H-pyrazol-3-yl)pyrrolo[2,1-f][1,2,4]triazin-4-amine]: the inhibition at 20 µM in test [1] is 50 to 75%. Besides, in test [2] (at 20 μM), the “KRas G12D mutant + SOS: % inh.” value is listed as “B (B = 26-49% inhibition)” and the “KRas G12D mutant: % inh.” value is given as “C (C = 50-75% inhibition)”. In test [3] (at 20 μM), the “KRas wild type + SOS: % inh.” value is “B (B = 26-49% inhibition)” and the “KRas wild type: % inh.” value is “B (B = 26-49% inhibition)”. In test [4] (setting [5]), the IC50 lay within 150 to 500 nM.
